{"source": "patent US20220313651A1", "about": "“INHIBITORS OF ZIKA VIRUS INFECTION” (priority 2019, published 2022)", "key": {"[1]": {"molecular_target": "ZIKV full-length E protein (Zika virus, UniProt Q32ZE1)", "assay": "ELISA binding to ZIKV full-length E protein", "protocol": "(§1) Binding of compounds (NPs) to ZIKV full-length E (FIG. 3A), EDIII (FIG. 3B), and NS2B-NS3 (FIG. 3C) proteins, was detected by ELISA. The percent binding was reported in the presence or absence of serially diluted NPs using the formula (1-[E/EDIII-NP]/[E/EDIII])×100 (for E/EDIII binding) or (1-[NS2B-NS3-NP]/[NS2B-NS3])×100 (for NSEB-NS3 binding). […] The concentrations of ZIKV EDIII and mAbs were 1.5 and 0.5 μg/ml, respectively. […] The concentrations of substrate (Bz-Nle-Lys-Lys-Arg-AMC) and ZIKV NS2B-NS3 protein were 4 μM and 1 μg/ml, respectively. The percent inhibition of protease activity was calculated in the presence or absence of serially diluted compounds using the formula (1-[NS2B-NS3-substrate-NP]/[NS2B-NS3-substrate])×100. The IC50 values were calculated based on the percent inhibition. The data are expressed as mean±s.e.m. (n=4).\n(§2) The data are expressed as mean±s.e.m. (n=4), and DMSO was used as negative control. Surface plasmon resonance (SPR) analysis of the binding between ST087010 and ZIKV EDIII (FIG. 6D) or NS2B-NS3 (FIG. 6E) protein was performed. Binding affinity was shown as KD (equilibrium dissociation constant).\n(§3) The binding between the Z-medicament and ZIKV full-length E protein, EDIII protein (E residues 298-409 fused with a C-terminal human Fc), or NS2B-NS3 protease was carried out by ELISA. Briefly, ELISA plates were pre-coated with the proteins described above at 4° C. overnight, and blocked with 2% fat-free milk at 37° C. for 2 h. Serial dilutions of the Z-medicament or DMSO (control) were then added to the plates and incubated at 37° C. for 2 h. The plates were washed with PBS containing Tween-20 (PBST), and incubated at 37° C. for 1 h with ZIKV EDIII-specific human mAb ZKA64-LALA (0.5 μg/ml) (for binding to ZIKV full-length E and EDIII proteins), or mouse sera specific to ZIKV NS2B-NS3 (for binding to NS2B-NS3 protease). The plates were washed with PBST, and incubated with horseradish peroxidase (HRP)-conjugated anti-human IgG-Fab (1:3000) or anti-mouse IgG (1:3000) antibody at 37° C. for 1 h. The 3,3′,5,5′-tetramethylbenzidine (TMB) substrate was added to the plates, and the reaction was stopped by 1 N H2SO4. Absorbance at 450 nm (A450 value) was measured by ELISA microplate reader.\nBriefly, ELISA plates were coated with each protein (1 μg/ml) at 4° C. overnight, and were then incubated with blocking buffer containing 2% fat-free milk in PBST at 37° C. for 2 h. The above compounds, or DMSO control, at serial dilutions were added to the plates, and incubated at 37° C. for 2 h. After three washes using PBST, the plates were incubated at 37° C. for 2 h with ZIKV EDIII-specific human mAb ZKA64-LALA (0.5 μg/ml) (for binding to ZIKV full-length E or EDIII protein), or ZIKV NS2B-NS3-specific mouse sera (for binding to NS2B-NS3 protein). After further washes, the plates were incubated with HRP-conjugated anti-human IgG-Fab (1:3,000) or anti-mouse IgG (1:3,000) antibody at 37° C. for 1 h. The plates were incubated with substrate TMB, and the reaction was stopped by addition of 1 N H2SO4. Absorbance at 450 nm (A450 values) was measured by an ELISA microplate reader. EC50 values were calculated."}, "[2]": {"system": "ZIKV human strain FLR (2015/Colombia)", "assay": "Plaque reduction inhibition assay in Vero E6 cells, ZIKV FLR", "format": "cell-based, Zika virus (ZIKV)", "protocol": "(§4) A plaque reduction inhibition assay was carried out to measure the inhibitory activity of Z-medicaments against infections of ZIKV and DENV. […] The compound-virus mixtures were then transferred to Vero E6 cells (10^5/well) and incubated at 37° C. for 1 h."}, "[3]": {"system": "ZIKV human strain PRVABC59 (2015/Puerto Rico)", "assay": "Plaque reduction inhibition assay in Vero E6 cells, ZIKV PRVABC59", "format": "cell-based, Zika virus (ZIKV)", "protocol": "as §4"}, "[4]": {"molecular_target": "T1, ZIKV EDIII protein (E residues 298-409) (Zika virus, UniProt Q32ZE1, D679E/I627V/V603I/V629A)", "T1 construct": "human Fc (C)", "format": "binding", "conditions": "ELISA", "protocol": "as §1, §2, §3\nBriefly, ELISA plates were coated with each protein (1 μg/ml) at 4° C. overnight, and were then incubated with blocking buffer containing 2% fat-free milk in PBST at 37° C. for 2 h. The above compounds, or DMSO control, at serial dilutions were added to the plates, and incubated at 37° C. for 2 h. […] Absorbance at 450 nm (A450 values) was measured by an ELISA microplate reader. EC50 values were calculated."}, "LLC-MK2 cells": {"system": "LLC-MK2 cells", "protocol": "The cytotoxicity of Z-medicaments in LLC-MK2 (DENV-1-4 target cells) was detected using Cell Counting Kit-8 (CCK8). […] The cells were then incubated with CCK8 solution, and measured absorbance at 450 nm (A450 value) using a microplate reader.\nBriefly, compounds at 2-fold serial dilutions were added to cells (2.0×10^4/well) pre-seeded in 96-well plates. The cells were cultured at 37° C. for 3 days, and incubated with CCK8 solution, followed by measurement of absorbance at 450 nm (A450 value) using microplate reader."}, "[5]": {"system": "ZIKV rhesus macaque strain MR 766 (1947/Uganda)", "assay": "Plaque reduction inhibition assay in Vero E6 cells, ZIKV MR 766", "format": "cell-based, Zika virus (ZIKV)", "protocol": "as §4"}, "ZIKV PAN2016 strain": {"system": "ZIKV PAN2016 strain", "assay": "Combinatorial effects of gossypol with other Z-medicaments, ZIKV PAN2016", "format": "cell-based, Zika virus (ZIKV)", "conditions": "for Fold of Enhancement / CI (combination index): ZIKV PAN2016; for Fold of Enhancement: IC50 alone / in mixture; for CI (combination index): named compound in combination with gossypol", "protocol": "The unbound viruses and Z-medicaments were removed, and the cells were cultured at 37° C. for 4-5 days, followed by staining with 0.5% crystal violet. The Z-medicaments without combinations were used as controls. The IC50 of the Z-medicaments was calculated as described above.\nThe Z-medicaments were then analyzed for synergistic effects based on the combination index (CI) and IC50 values using the CalcuSyn program. Specifically, CI values <1 and >1 indicate synergy and antagonism, respectively. Synergy was further identified as five different categories: CI values <0.1, 0.1-0.3, 0.3-0.7, 0.7-0.85, and 0.85-0.90 indicate very strong synergism, strong synergism, synergism, moderate synergism, and slight synergism, respectively. Fold enhancement of anti-ZIKV potency is expressed as the ratio of molar concentrations of the Z-medicaments tested alone and in the mixture."}, "[6]": {"conditions": "Zika virus, Vero C1008, Vero E6 cells, Table 1, read-out: IC50 against ZIKV strain FLR"}, "[7]": {"conditions": "Zika virus, Vero C1008, in Macaca mulatta, Vero E6 cells, Table 1, read-out: IC50 against ZIKV strain MR 766"}}, "note": "Where two headings read alike, the source gives them in different places."}
{"smiles": "Cc1cc2c(C(C)C)c(O)c(O)c(/C=N/n3c(=O)[nH][nH]c3=O)c2c(O)c1-c1c(C)cc2c(C(C)C)c(O)c(O)c(/C=N/n3c(=O)[nH][nH]c3=O)c2c1O", "note": "[ST087010]", "values": [{"measurement": "EC50", "setting": "[1]; detected with mAb ZKA64-LALA", "result": 6.47, "unit": "µM"}, {"measurement": "IC50", "setting": "[2]; Vero E6 cells, Table 7, gossypol derivatives, read-out: ZIKV strains IC50, FLR", "result": "2.76 ± 0.1", "unit": "µM"}, {"measurement": "IC50", "setting": "[3]; Vero E6 cells, Table 7, gossypol derivatives, read-out: ZIKV strains IC50, PRVABC59", "result": "2.36 ± 0.05", "unit": "µM"}, {"measurement": "EC50", "setting": "[4]; detected with mAb ZKA64-LALA, read-out: EC50, binding to ZIKV EDIII protein", "result": 6.13, "unit": "µM"}, {"measurement": "CC50", "setting": "LLC-MK2 cells; Table 8", "result": 47.2, "unit": "µM"}, {"measurement": "IC50", "setting": "[5]; Vero E6 cells, Table 7, gossypol derivatives, read-out: ZIKV strains IC50, MR766", "result": "3.52 ± 0.2", "unit": "µM"}]}
{"smiles": "Cc1cc2c(C(C)C)c(O)c(O)c(C=O)c2c(O)c1-c1c(C)cc2c(C(C)C)c(O)c(O)c(C=O)c2c1O", "note": "[Gossypol, gossypol]", "values": [{"measurement": "IC50", "setting": "ZIKV PAN2016 strain; Zika virus, Vero C1008, read-out: IC50 Alone", "result": "3.79 ± 0.01", "unit": "µM"}, {"measurement": "IC50", "setting": "[2]; [6]", "result": "0.21 ± 0.01", "unit": "µM"}, {"measurement": "IC50", "setting": "[2]; Zika virus, Vero C1008, read-out: ZIKV strains IC50, FLR", "result": "0.73 ± 0.07", "unit": "µM"}, {"measurement": "IC50", "setting": "[3]; Zika virus, Vero C1008, read-out: ZIKV strains IC50, PRVABC59", "result": "4.55 ± 0.07", "unit": "µM"}, {"measurement": "IC50", "setting": "[5]; [7]", "result": "3.75 ± 0.01", "unit": "µM"}, {"measurement": "IC50", "setting": "[5]; Zika virus, Vero C1008, in Macaca mulatta, read-out: ZIKV strains IC50, MR766", "result": "4.14 ± 0.05", "unit": "µM"}]}
{"smiles": "C[C@@H]1CC[C@@]2(OC1)O[C@H]1[C@@H](O)[C@H]3[C@@H]4CC[C@H]5C[C@@H](O[C@@H]6O[C@H](CO)[C@H](O[C@@H]7O[C@H](CO)[C@@H](O)[C@H](O[C@@H]8OC[C@@H](O)[C@H](O)[C@H]8O)[C@H]7O[C@@H]7O[C@H](CO)[C@H](O)[C@H](O[C@@H]8O[C@H](CO)[C@@H](O)[C@H](O)[C@H]8O)[C@H]7O)[C@H](O)[C@H]6O)[C@H](O)C[C@]5(C)[C@H]4CC[C@]3(C)[C@H]1[C@@H]2C", "note": "[Digitonin, digitonin]", "values": [{"measurement": "Fold of Enhancement", "setting": "ZIKV PAN2016 strain; gossypol + digitonin", "result": 3.21}, {"measurement": "CI (combination index)", "setting": "ZIKV PAN2016 strain", "result": 0.60}, {"measurement": "Binding to ZIKV full-length E protein (in words)", "setting": "[1]", "result": "bound to no ZIKV proteins tested"}, {"measurement": "IC50", "setting": "[2]; [6]", "result": "3.34 ± 0.22", "unit": "µM"}, {"measurement": "IC50", "setting": "[3]; Zika virus, Vero C1008, Vero E6 cells, Table 1, read-out: IC50 against ZIKV strain PRVABC59", "result": "3.76 ± 1.12", "unit": "µM"}, {"measurement": "Binding to ZIKV EDIII protein (in words)", "setting": "[4]", "result": "bound to no ZIKV proteins tested"}, {"measurement": "CC50", "setting": "LLC-MK2 cells; 3 days, CCK8, Table 5", "result": "59.02 ± 0.33", "unit": "µM"}, {"measurement": "IC50", "setting": "[5]; [7]", "result": "3.77 ± 0.31", "unit": "µM"}]}
{"smiles": "COc1cc(/C=C/C(=O)CC(=O)/C=C/c2ccc(O)c(OC)c2)ccc1O", "note": "[Curcumin, curcumin]", "values": [{"measurement": "Fold of Enhancement", "setting": "ZIKV PAN2016 strain; gossypol + curcumin", "result": 3.60}, {"measurement": "CI (combination index)", "setting": "ZIKV PAN2016 strain", "result": 0.52}, {"measurement": "Binding to ZIKV full-length E protein (in words)", "setting": "[1]", "result": "much lower binding affinity"}, {"measurement": "CC50", "setting": "LLC-MK2 cells; 3 days, CCK8, Table 5", "result": "59.4 ± 1.18", "unit": "µM"}]}
{"smiles": "C[C@H]1[C@H]2CC[C@H]3[C@@H]4CC=C5C[C@@H](N(C)C)CC[C@]5(C)[C@H]4CC[C@]23CN1C", "note": "[Conessine, conessine]", "values": [{"measurement": "Fold of Enhancement", "setting": "ZIKV PAN2016 strain; gossypol + conessine", "result": 4.44}, {"measurement": "CI (combination index)", "setting": "ZIKV PAN2016 strain", "result": 0.44}, {"measurement": "Binding to ZIKV full-length E protein (in words)", "setting": "[1]", "result": "bound to no ZIKV proteins tested"}, {"measurement": "Binding to ZIKV EDIII protein (in words)", "setting": "[4]", "result": "bound to no ZIKV proteins tested"}]}
